# Target: Prothrombin (Homo sapiens, UniProt P00734)
# Assay: not given
row,Compound,Ki [nM]
1,N=C(N)c1ccc([C@H]2[C@H]3C(=O)N(Cc4ccccc4F)C(=O)[C@H]3[C@@H]3CCCN32)cc1,500
2,N=C(N)c1ccc([C@H]2[C@H]3C(=O)N(Cc4ccc(Cl)cc4)C(=O)[C@H]3[C@@H]3CCCN32)cc1,190
3,N=C(N)c1ccc([C@H]2[C@H]3C(=O)N(Cc4cccc(F)c4F)C(=O)[C@H]3[C@@H]3CCCN32)cc1,490

# Tested on: not listed separately
# Assay: physchem
row,pKa,Compound
1,9.81,NCc1ccc(F)c(O)c1F
2,7.12,NCc1cc(F)c(O)c(F)c1

# Tested on: Plasmodium berghei
# Assay: microbe, parasite or virus in culture
# Type: functional, organism-based
Compound,IC50 [nM],IC90 [nM]
C[C@@H]1CC[C@H]2[C@@H](C)C(=C(F)F)O[C@@H]3O[C@@]4(C)CC[C@@H]1[C@]32OO4,20,
CC1=C(C(F)(F)F)O[C@@H]2O[C@@]3(C)CC[C@H]4[C@H](C)CC[C@@H]1[C@@]24OO3,4.6,7.3
C[C@@H]1CC[C@H]2[C@@H](C)C(=O)O[C@@H]3O[C@@]4(C)CC[C@@H]1[C@]32OO4 [ARTEMISININ],8.9,14.5

# Target: Procathepsin L (Homo sapiens, UniProt P07711)
# Sequence (P07711 whole entry): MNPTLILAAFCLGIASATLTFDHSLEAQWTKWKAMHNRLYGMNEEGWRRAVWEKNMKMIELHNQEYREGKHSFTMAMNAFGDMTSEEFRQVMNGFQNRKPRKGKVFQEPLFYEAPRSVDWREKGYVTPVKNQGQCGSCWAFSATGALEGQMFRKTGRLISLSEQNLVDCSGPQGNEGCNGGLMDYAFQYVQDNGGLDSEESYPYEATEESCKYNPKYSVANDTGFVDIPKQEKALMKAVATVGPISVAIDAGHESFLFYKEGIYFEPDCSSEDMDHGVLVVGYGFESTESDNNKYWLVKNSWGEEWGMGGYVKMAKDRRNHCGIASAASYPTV
# Assay: not given
row,Compound,Ki [nM]
1,N#Cc1nc(N2CCOCC2)nc(N(Cc2cnccn2)C2CCCC2)n1,158
2,N#Cc1nc(N2CCOCC2)nc(N(Cc2c(F)cccc2F)C2CCCC2)n1,100
3,N#Cc1nc(N2CCOCC2)nc(N(Cc2cc(F)ccc2F)C2CCCC2)n1,251
